# Measurements as given in US9663463B2, “3-azabicyclo[3.1.0]hexane derivative and use thereof for medical purpose” (priority 2013, dated 2017).
# Where a name gives a salt, the structure may show the parent alone.
# Tested on: pruritus mice model to which morphine had been intracisternally administered
# Experiment: Anti-pruritic effect in pruritus mice model to which morphine had been intracisternally administered
# Format: in vivo
# Settings: Mus musculus; oral administration, male ICR mice, inhibition of morphine-induced scratching behavior; read-out: ED50
# Description: As experimental animals, male ICR (Cr1j: CD1 (ICR): Charles River Japan) mice were used at 5 to 6-week old. The mice were placed in an acrylic cage (colorless and transparent, W 13.5 cm×D 9.5 cm×H 40 cm) for observing scratching behavior for 30 minutes or more to thereby allow the mice to get used to the observation environment, and the test substance solutions were forcedly orally administered to the test substance-administered groups. In addition, an administration vehicle was forcedly orally administered to the normal control group and the pathological control group. A necessary amount of the test substance was weighed and formed into a micropowder in an agate mortar, an administration vehicle, a 0.5 w/v % methyl cellulose 400 solution (Wako Pure Chemical Industries Ltd.) was added little by little, and preparation was performed by suspending or dissolving so as to give an intended concentration (from 0.025 to 3 mg/ml). The test doses were preset to suitable doses in the range in which the maximum dose is 30 mg/10 ml/kg.
# Based on 30 minutes after the forced oral administration of the test substance as a criterion, the time for the intracisternal administration of morphine was suitably set up to 120 minutes after at the maximum, with consideration for the times of maximum plasma concentration of the respective test substances, in the case when the in vivo pharmacokinetics of the test substance had been confirmed in advance. Furthermore, saline was intracisternally administered to the normal control group, and the above-mentioned morphine solution was intracisternally administered to the pathogenic control group, so as to be 5 μL/site at the same time as that of the test substance group after the forced oral administration of the administration vehicle in either case.
# The behavior of each mouse within 60 minutes from the intracisternal administration of the morphine solution or saline was recorded by a digital video camera that was installed immediately above the acrylic cage, the images were stored in a digital video recorder, and the number of frequency of the scratching behavior was measured. The number of frequency of the scratching behavior was measured with deeming a behavior in which the mouse raised its hindlimb, scratched the facial surface and the peripheral sites thereof, and got the hindlimb off from the body within 30 minutes from after the intracisternal administration of the morphine or saline as one time.
# The anti-pruritic effect of each test substance was obtained as follows. As an inhibition ratio against the number of frequency of the scratching behavior on the pathological control group, the inhibition ratio (%) of the respective individuals and the average value thereof were calculated from the following formula, and an ED50 value was calculated based on the obtained inhibition ratio. Inhibition ratio of each individual (%)={1−(A−Vehicle)/(Morphine−Vehicle)}×100 Morphine: the average of the scratching number of the pathological control group Vehicle: the average of the scratching number of the normal control group A: the scratching number of each individual in the test substance-administered group
row,Structure (SMILES),ED50 [mg/kg]
1,"CC[C@]1(c2cc(NS(=O)(=O)C3CC3)ccc2F)[C@@H]2CN(CC3(O)Cc4ccccc4C3)C[C@@H]21 [Example 2-(b), N-(3-{(1R,5S,6r)-6-ethyl-3-[(2-hydroxy-2,3-dihydro-1H-inden-2-yl)methyl]-3-azabicyclo[3.1.0]hexan-6-yl}-4-fluorophenyl)cyclopropanesulfonamide hydrochloride]",0.83
2,"CC[C@]1(c2cc(NS(=O)(=O)C3CC3)ccc2F)[C@@H]2CN(CCCC3CCC(F)(F)CC3)C[C@@H]21 [Example 5-(b), N-(3-{(1R,5S,6r)-3-[3-(4,4-difluorocyclohexyl)propyl]-6-ethyl-3-azabicyclo[3.1.0]hexan-6-yl}-4-fluorophenyl)cyclopropanesulfonamide hydrochloride]",1.7
3,"CC[C@]1(c2cc(NS(=O)(=O)C3CC3)ccc2F)[C@@H]2CN(CCCN3CCC(F)(F)CC3)C[C@@H]21 [Example 15-(b), N-(3-{(1R,5S,6r)-3-[3-(4,4-difluoropiperidin-1-yl)propyl]-6-ethyl-3-azabicyclo[3.1.0]hexan-6-yl}-4-fluorophenyl)cyclopropanesulfonamide hydrochloride]",3.1
4,"CC[C@]1(c2cc(F)cc(NS(=O)(=O)C3CC3)c2)[C@@H]2CN(CC3(O)Cc4ccccc4C3)C[C@@H]21 [Example 10-(b), N-(3-{(1R,5S,6r)-6-ethyl-3-[(2-hydroxy-2,3-dihydro-1H-inden-2-yl)methyl]-3-azabicyclo[3.1.0]hexan-6-yl}-5-fluorophenyl)cyclopropanesulfonamide hydrochloride]",1.8
5,"CC[C@]1(c2cccc(NS(=O)(=O)C3CC3)c2)[C@@H]2CN(CCCN3CCCC(F)(F)C3)C[C@@H]21 [Example 16-(b), N-(3-{(1R,5S,6r)-3-[3-(3,3-difluoropiperidin-1-yl)propyl]-6-ethyl-3-azabicyclo[3.1.0]hexan-6-yl}phenyl)cyclopropanesulfonamide hydrochloride]",5.7
6,"CC[C@]1(c2cccc(NS(=O)(=O)C3CC3)c2)[C@@H]2CN(CCCC3CCC(F)(F)CC3)C[C@@H]21 [Example 4-(b), N-(3-{(1R,5S,6r)-3-[3-(4,4-difluorocyclohexyl)propyl]-6-ethyl-3-azabicyclo[3.1.0]hexan-6-yl}phenyl)cyclopropanesulfonamide hydrochloride]",0.5
7,"CC[C@]1(c2cccc(NS(=O)(=O)C3CC3)c2)[C@@H]2CN(CCCN3CCC(F)(F)C3)C[C@@H]21 [Example 8-(b), N-(3-{(1R,5S,6r)-3-[3-(3,3-difluoropyrrolidin-1-yl)propyl]-6-ethyl-3-azabicyclo[3.1.0]hexan-6-yl}phenyl)cyclopropanesulfonamide hydrochloride]",2
